Where a name gives a salt, the structure may show the parent alone.
Target: T1, proton pump (H+/K+-ATPase) (Sus scrofa, UniProt P19156)
T1 construct: Gastric vesicles were prepared from hog stomach via centrifugal separation; from tissue; host or cells: hog stomach (gastric vesicles, method of Rabon et al. 1988)
Experiment: Measurement of inhibitory effects on proton pump (H+/K+-ATPase) activities
Format: biochemical
Settings: hog gastric vesicles, K+-specific H+/K+-ATPase activity, Tris-HCl buffer pH 7.4, 37° C. for 40 minutes, malachite green Pi readout
In short: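 Hog gastric vesicles in 60 mmol/l Tris-HCl pH 7.4 with 0.5% DMSO were treated with compounds at room temperature; reaction was started with 10 μl of 10 mmol/l ATP stock. Released Pi was read at 570 nm, K+-specific activity taken as the ±K+ difference. IC50 from 4-parameter logistic fit.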

T1 sequence (P19156 whole entry): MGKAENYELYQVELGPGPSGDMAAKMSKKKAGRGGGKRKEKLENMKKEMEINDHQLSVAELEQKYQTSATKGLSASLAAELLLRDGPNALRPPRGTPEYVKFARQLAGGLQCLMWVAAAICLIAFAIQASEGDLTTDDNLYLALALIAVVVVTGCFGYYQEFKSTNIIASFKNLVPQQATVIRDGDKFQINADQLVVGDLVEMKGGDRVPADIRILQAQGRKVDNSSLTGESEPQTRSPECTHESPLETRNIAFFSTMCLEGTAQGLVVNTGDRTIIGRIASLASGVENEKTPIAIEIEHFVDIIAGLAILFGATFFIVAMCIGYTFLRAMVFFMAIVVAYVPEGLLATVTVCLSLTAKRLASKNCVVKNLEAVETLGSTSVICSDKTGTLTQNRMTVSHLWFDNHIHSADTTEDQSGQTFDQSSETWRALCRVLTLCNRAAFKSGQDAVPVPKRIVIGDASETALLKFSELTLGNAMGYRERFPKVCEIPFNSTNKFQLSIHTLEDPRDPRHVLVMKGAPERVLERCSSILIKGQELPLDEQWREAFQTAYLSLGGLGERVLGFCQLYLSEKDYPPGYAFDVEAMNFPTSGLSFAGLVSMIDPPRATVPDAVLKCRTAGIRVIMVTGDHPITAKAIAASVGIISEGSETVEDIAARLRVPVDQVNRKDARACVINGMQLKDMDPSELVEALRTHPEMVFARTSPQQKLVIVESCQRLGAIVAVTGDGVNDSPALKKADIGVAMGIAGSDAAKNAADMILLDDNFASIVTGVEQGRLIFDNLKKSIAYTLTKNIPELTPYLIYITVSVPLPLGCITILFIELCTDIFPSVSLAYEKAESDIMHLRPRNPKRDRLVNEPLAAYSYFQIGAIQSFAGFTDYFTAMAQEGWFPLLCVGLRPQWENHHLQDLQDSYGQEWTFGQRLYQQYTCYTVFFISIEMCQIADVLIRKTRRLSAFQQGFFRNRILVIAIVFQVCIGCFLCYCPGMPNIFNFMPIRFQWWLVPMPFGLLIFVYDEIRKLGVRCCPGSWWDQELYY
T1 sequence (P18434 whole entry partner): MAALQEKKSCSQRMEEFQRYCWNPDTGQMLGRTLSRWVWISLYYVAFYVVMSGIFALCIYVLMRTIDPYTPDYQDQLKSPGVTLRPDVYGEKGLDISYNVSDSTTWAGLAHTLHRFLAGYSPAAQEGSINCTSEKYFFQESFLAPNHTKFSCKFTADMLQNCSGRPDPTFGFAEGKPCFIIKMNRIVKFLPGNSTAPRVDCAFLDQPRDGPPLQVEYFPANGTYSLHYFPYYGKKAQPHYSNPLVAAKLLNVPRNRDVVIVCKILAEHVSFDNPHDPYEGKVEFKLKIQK

| SMILES | IC50 |
| --- | --- |
| CNCc1cn(S(=O)(=O)c2ccc(Cl)c(Cl)c2Cl)c2cc(Nc3ccc(C)cc3F)ccc12 [Example 240, N-(2-fluoro-4-methylphenyl)-3-((methylamino)methyl)-1-((2,3,4-trichlorophenyl)sulfonyl)-1H-indol-6-amine hydrochloride] | 1.67 µM |
| CNCc1cn(S(=O)(=O)c2cncc(Br)c2)c2cc(Nc3ccc(C)cc3F)ccc12 [Example 241, 1-((5-bromopyridin-3-yl)sulfonyl)-N-(2-fluoro-4-methylphenyl)-3-((methylamino)methyl)-1H-indol-6-amine hydrochloride] | 2.19 µM |
| CNCc1cn(S(=O)(=O)c2ccc(OC)nc2)c2cc(Nc3ccc(C)cc3F)ccc12 [Example 242, N-(2-fluoro-4-methylphenyl)-1-((6-methoxypyridin-3-yl)sulfonyl)-3-((methylamino)methyl)-1H-indol-6-amine hydrochloride] | 3.85 µM |
| CNCc1cn(S(=O)(=O)c2cccnc2)c2cc(-c3ccccc3)ccc12 [Example 243, N-methyl-1-(6-phenyl-1-(pyridin-3-ylsulfonyl)-1H-indol-3-yl)methanamine] | 7.14 µM |
| CNCc1cn(S(=O)(=O)c2cccnc2)c2cc(-c3cccc(Cl)c3)ccc12 [Example 244, 1-(6-(3-chlorophenyl)-1-(pyridin-3-ylsulfonyl)-1H-indol-3-yl)-N-methylmethanamine] | 2.44 µM |
| CNCc1cn(S(=O)(=O)c2cccnc2)c2cc(-c3cccc(NC(C)=O)c3)ccc12 [Example 245, N-(3-(3-((methylamino)methyl)-1-(pyridin-3-ylsulfonyl)-1H-indol-6-yl)phenyl)acetamide] | 12.9 µM |
| CNCc1cn(S(=O)(=O)c2cccnc2)c2cc(-c3ccc(N)cc3)ccc12 [Example 246, 4-(3-((methylamino)methyl)-1-(pyridin-3-ylsulfonyl)-1H-indol-6-yl)aniline] | 0.53 µM |
| CNCc1cn(S(=O)(=O)c2cccnc2)c2cc(-c3ccc(-c4ccccc4)cc3)ccc12 [Example 247, 1-(6-([1,1′-biphenyl]-4-yl)-1-(pyridin-3-ylsulfonyl)-1H-indol-3-yl)-N-methylmethanamine] | 4.15 µM |
| CNCc1cn(S(=O)(=O)c2cccnc2)c2cc(-c3ccc(OC)nc3)ccc12 [Example 248, 1-(6-(6-methoxypyridin-3-yl)-1-(pyridin-3-ylsulfonyl)-1H-indol-3-yl)-N-methylmethanamine] | 20 µM |
| CNCc1cn(S(=O)(=O)c2cccnc2)c2cc(-c3cnn(C)c3)ccc12 [Example 249, N-methyl-1-(6-(1-methyl-1H-pyrazol-4-yl)-1-(pyridin-3-ylsulfonyl)-1H-indol-3-yl)methanamine] | 50 µM |
| CNCc1cn(S(=O)(=O)c2cccnc2)c2cc(-c3ccnn3C)ccc12 [Example 250, N-methyl-1-(6-(1-methyl-1H-pyrazol-5-yl)-1-(pyridin-3-ylsulfonyl)-1H-indol-3-yl)methanamine] | 40 µM |
| CNCc1cn(S(=O)(=O)c2cccnc2)c2cc(-c3ccc(OC)cc3)ccc12 [Example 251, 1-(6-(4-methoxyphenyl)-1-(pyridin-3-ylsulfonyl)-1H-indol-3-yl)-N-methylmethanamine hydrochloride] | 2.6 µM |
| CNCc1cn(S(=O)(=O)c2cccnc2)c2cc(-c3ccc(C)cc3F)ccc12 [Example 252, 1-(6-(2-fluoro-4-methylphenyl)-1-(pyridin-3-ylsulfonyl)-1H-indol-3-yl)-N-methylmethanamine hydrochloride] | 1 µM |
| CNCc1cn(S(=O)(=O)c2cccnc2)c2cc(-c3ccc(C)cc3Cl)ccc12 [Example 253, 1-(6-(2-chloro-4-methylphenyl)-1-(pyridin-3-ylsulfonyl)-1H-indol-3-yl)-N-methylmethanamine hydrochloride] | 0.49 µM |
| CNCc1cn(S(=O)(=O)c2cccnc2)c2cc(-c3cccnc3C(F)(F)F)ccc12 [Example 254, N-methyl-1-(1-(pyridin-3-ylsulfonyl)-6-(2-(trifluoromethyl)pyridin-3-yl)-1H-indol-3-yl)methanamine hydrochloride] | 9.15 µM |
| CNCc1cn(S(=O)(=O)c2cccnc2)c2cc(-c3ccc(F)nc3)ccc12 [Example 255, 1-(6-(6-fluoropyridin-3-yl)-1-(pyridin-3-ylsulfonyl)-1H-indol-3-yl)-N-methylmethanamine hydrochloride] | 11.7 µM |
| CNCc1cn(S(=O)(=O)c2cccnc2)c2cc(-c3ccnc(F)c3)ccc12 [Example 256, 1-(6-(2-fluoropyridin-4-yl)-1-(pyridin-3-ylsulfonyl)-1H-indol-3-yl)-N-methylmethanamine hydrochloride] | 20 µM |
| CNCc1cn(S(=O)(=O)c2cccnc2)c2cc(-c3cnc(F)c(C)c3)ccc12 [Example 257, 1-(6-(6-fluoro-5-methylpyridin-3-yl)-1-(pyridin-3-ylsulfonyl)-1H-indol-3-yl)-N-methylmethanamine hydrochloride] | 14.2 µM |
| CNCc1cn(S(=O)(=O)c2cccnc2)c2cc(-c3cncnc3)ccc12 [Example 258, N-methyl-1-(1-(pyridin-3-ylsulfonyll)-6-(pyrimidin-5-yl)-1H-indol-3-yl)methanamine hydrochloride] | 20 µM |
| CNCc1cn(S(=O)(=O)c2cccnc2)c2cc(-c3cnc(OC)nc3)ccc12 [Example 259, 1-(6-(2-methoxypyrimidin-5-yl)-1-(pyridin-3-ylsulfonyl)-1H-indol-3-yl)-N-methylmethanamine hydrochloride] | 40 µM |
| CNCc1cn(S(=O)(=O)c2cccnc2)c2cc(N3CCCc4cc(C)ccc43)ccc12 [Example 260, N-methyl-1-(6-(6-methyl-3,4-dihydroquinolin-1(2H)-yl)-1-(pyridin-3-ylsulfonyl)-1H-indol-3-yl)methanamine hydrochloride] | 0.38 µM |
| CNCc1cn(S(=O)(=O)c2cccc(OC(F)F)c2)c2cc(-c3cccnc3C(F)(F)F)ccc12 [Example 261, 1-(1-((3-(difluoromethoxy)phenyl)sulfonyl)-6-(2-(trifluoromethyl)pyridin-3-yl)-1H-indol-3-yl)-N-methylmethanamine hydrochloride] | 9.24 µM |
| CNCc1cn(S(=O)(=O)c2cccc(OC(F)F)c2)c2cc(-c3ccnc(F)c3)ccc12 [Example 262, 1-(1-((3-(difluoromethoxy)phenyl)sulfonyl)-6-(2-fluoropyridin-4-yl)-1H-indol-3-yl)-N-methylmethanamine hydrochloride] | 8.44 µM |

Second part, the molecule after the results:

| IC50 | SMILES |
| --- | --- |
| 60 µM | CNCc1cn(S(=O)(=O)c2cccc(OC(F)F)c2)c2cc(-c3cnc(F)c(C)c3)ccc12 [Example 263, 1-(1-((3-(difluoromethoxy)phenyl)sulfonyl)-6-(6-fluoro-5-methylpyridin-3-yl)-1H-indol-3-yl)-N-methylmethanamine hydrochloride] |
| 20 µM | CNCc1cn(S(=O)(=O)c2cccc(OC(F)F)c2)c2cc(-c3cncnc3)ccc12 [Example 264, 1-(1-((3-(difluoromethoxy)phenyl)sulfonyl)-6-(pyrimidin-5-yl)-1H-indol-3-yl)-N-methylmethanamine hydrochloride] |
| 40 µM | CNCc1cn(S(=O)(=O)c2ccc(OC(F)F)cc2)c2cc(-c3cncnc3)ccc12 [Example 265, 1-(1-((4-(difluoromethoxy)phenyl)sulfonyl)-6-(pyrimidin-5-yl)-1H-indol-3-yl)-N-methylmethanamine hydrochloride] |
| 45 µM | CNCc1cn(S(=O)(=O)c2cccc(OC(F)F)c2)c2cc(-c3cnc(OC)nc3)ccc12 [Example 266, 1-(1-((3-(difluoromethoxy)phenyl)sulfonyl)-6-(2-methoxypyrimidin-5-yl)-1H-indol-3-yl)-N-methylmethanamine hydrochloride] |
| 0.76 µM | CNCc1cn(S(=O)(=O)c2cccnc2)c2cc(Cc3ccccc3)ccc12 [Example 268, 1-(6-benzyl-(pyridin-3-ylsulfonyl)-1H-indol-3-yl)-N-methylmethanamine hydrochloride] |
| 0.77 µM | CNCc1cn(S(=O)(=O)c2cccnc2)c2cc(Cc3ccccc3F)ccc12 [Example 269, 1-(6-(2-fluorobenzyl)-1-(pyridin-3-ylsulfonyl)-1H-indol-3-yl)-N-methylmethanamine hydrochloride] |
| 3.95 µM | CNCc1cn(S(=O)(=O)c2cccnc2)c2cc(Cc3ccc(OC(F)(F)F)cc3)ccc12 [Example 271, N-methyl-1-(1-(pyridin-3-ylsulfonyl)-6-(4-(trifluoromethoxy)benzyl)-1H-indol-3-yl)methanamine hydrochloride] |
| 1.17 µM | CNCc1cn(S(=O)(=O)c2cccnc2)c2cc(Cc3ccc(Cl)cc3F)ccc12 [Example 274, 1-(6-(4-chloro-2-fluorobenzyl)-1-(pyridin-3-ylsulfonyl)-1H-indol-3-yl)-N-methylmethanamine hydrochloride] |
| 1.76 µM | CNCc1cn(S(=O)(=O)c2cccnc2)c2cc(Cc3ccc(Cl)cc3C(F)(F)F)ccc12 [Example 275, 1-(6-(4-chloro-2-(trifluoromethyl)benzyl)-1-(pyridin-3-ylsulfonyl)-1H-indol-3-yl)-N-methylmethanamine hydrochloride] |
| 0.67 µM | CNCc1cn(S(=O)(=O)c2cccnc2)c2cc(Cc3ccc(C(F)(F)F)cc3Cl)ccc12 [Example 276, 1-(6-(2-chloro-4-(trifluoromethyl)benzyl)-1-(pyridin-3-ylsulfonyl)-1H-indol-3-yl)-N-methylmethanamine hydrochloride] |
| 0.76 µM | CNCc1cn(S(=O)(=O)c2cccnc2)c2cc(Cc3ccc(OC)cc3F)ccc12 [Example 277, 1-(6-(2-fluoro-4-methoxybenzyl)-1-(pyridin-3-ylsulfonyl)-1H-indol-3-yl)-N-methylmethanamine hydrochloride] |

Reference: US9676714B2, “Sulfonylindole derivatives and method for preparing the same” (Daewoong Pharmaceutical Co., Ltd., priority 2013, dated 2017)
